According to article PMC12517105 (Toxicology Reports, 2025):
Like-named read-outs stand apart in the source and are kept apart here.

How the values were obtained:
[1] = tested on: ALI-HBECs; parameters: species or system human; conditions: for Fraction of parent metabolites that are M1 / Absorption into cells: optimization dataset
Text: A dosimetry model was developed to contextualize how PAHs interact with ALI-HBECs during exposure (Fig. 1). The model describes the time course dosimetry of two PAHs: […] Model parameters for cell and media compartments were characterized based on measurements for the ALI-HBEC culture system described by […] Technologies (Table 2). […] [28], [67]. We initially modeled parent and metabolite transport among compartments as passive diffusion using ordinary differential equations. […] Consistent with these previous observations, we observed induction of CYP1A1 activity as measured by P450-GloTM (see Results). […] CYP1A1 activity was included as a coefficient of the rate of metabolism for PAH parent which could be triggered by an induction switch. The switch allows for metabolism induction to be turned on or off in future uses of the model. When turned off, the CYP term is set to 1 and the rate of metabolism behaves as described above. […] Parameters were optimized against the optimization UPLC dataset. Parent absorption and metabolism were optimized together against data for BAP in cells. Parent permeability and volatilization were optimized together against data for BAP in media. […] All model parameters and CYP1A1 rational function coefficients were optimized using a maximum log likelihood objective with the Nelder-Mead algorithm and starting values set by visual inspection. The model was built in R version 4.4.2 (R Foundation for Statistical Computing, Vienna, Austria) using the RMagnolia R package version 1.3.15 (https://www.magnoliasci.com/rmagnolia/). The Akaike Information Criterion (AIC) was used for selecting the best model fit for CYP1A1 activity, inclusion of metabolism induction, and inclusion of active efflux. The final model with metabolism induction and active efflux of the metabolite was validated by comparison to data collected in the validation UPLC dataset.

[2] = Mass balance experiments: BAP and metabolites in cell, media and mucus fractions by UPLC; assay type: in vitro ADME, human; conditions: human
Method: (§1) Normal HBECs (Lonza, Basel, Switzerland) were expanded to passage 4 in PneumaCult™-Ex Plus medium and transferred to 12-well plates with 12 mm transwell inserts ([…] Technologies, Vancouver, BC, Canada) and 30,000 cells per insert or 24-well plates with 6.5 mm transwell inserts ([…] Technologies, Vancouver, BC, Canada) and 9000 cells per insert for differentiation at the ALI using PneumaCult™-ALI medium. Cells were cultured at the ALI for 25 days at 37°C and 5 % CO2 with media changes every 2–3 days and mucus washes using DPBS on the apical surface once a week starting at 14 days post air-lifting to maintain healthy ALI cultures. Just before exposure, media was changed and ALI-HBECs were apically washed with DPBS or ALI media to remove mucus.
(§2) Glass pipettes were used for all collection and extraction steps to reduce loss of compound from binding to plastic. ALI media was used instead of DPBS for all rinse and collection steps due to interference with the fluorescence detector. At each timepoint, basal media was collected and the bottom of the insert rinsed, the apical surface was washed and rinses collected, and cells were collected by scraping with a stainless-steel spatula and rinsed from the insert. All collected fractions were flash frozen in liquid nitrogen and stored at −80°C.
(§3) For Phase 2 metabolite analysis, samples were incubated with β-glucuronidase to deconjugate glucuronide and […] metabolites following methods described by Combie et al.. For cell fractions, 0.1 mm glass beads were added to the sample and placed in a Next Advance Bullet Blender™ 24 (Troy, NY) for 3 min to fully lyse cells and increase recovery. All cell, media, and mucus samples were transferred to amber glass vials and adjusted to pH 5 with acetic acid. β-glucuronidase reconstituted in water was added to samples at 5000 U/mL, and samples were incubated at 65°C for 3 h. Samples were allowed to cool to room temperature before continuing with extractions.
(§4) All samples were spiked with DBC as an internal standard for a final concentration of 2.5 μM to correct compound recovery for extraction efficiency. Cell fractions not previously incubated with β-glucuronidase were lysed by blending with 0.1 mm glass beads. All cell, media, and mucus samples were transferred to glass vials, vortexed and sonicated in ethyl acetate, and incubated for 2 h at −20°C to precipitate any protein. Samples were centrifuged at 2000 rcf for 10 min, and the ethyl acetate supernatant was collected. This was repeated for a total of three rounds. Ethyl acetate was evaporated to dryness under nitrogen gas, samples were reconstituted in 100 μL ACN, and samples were stored at −80°C.
(§5) Glucuronide metabolite formation was estimated as the difference between samples incubated with and without β-glucuronidase at similar timepoints.

[3] = tested on: ALI-HBECs; assay: as above; assay type: in vitro ADME, human
Method: as §1, §2, §3, §4, §5

[4] = tested on: genes related to xenobiotic metabolism and transport in ALI-HBECs; assay: RNA-sequencing, differentially expressed xenobiotic transport and metabolism genes; assay type: cell-based, human; conditions: 24 h, by at least one BAP treatment vs vehicle control
Method: (§6) Cells were collected from inserts and lysed with RLT lysis buffer with 1 % β-mercaptoethanol using the RNeasy Mini Kit (Qiagen, Hilden, Germany) and stored at −80 °C. RNA was isolated from cell lysate using the RNeasy Mini Kit per the manufacturer’s protocol and was quantified on a Synergy HTX (BioTek, Winooski, VT, USA) plate reader equipped with a Take3 module (BioTek, Winooski, VT, USA). […] For library construction, mRNA was poly-A selected and libraries were prepared as previously described by Dasgupta et al.. High quality reads with a sequencing length greater than 150 bp were annotated and mapped to the human reference genome GRCh38.p14 using HISAT2, count tables were generated with feature Counts, and differential expression was conducted using the DESeq2 R package version 1.46.0 compared to vehicle control, [64]. In vehicle exposed samples, the fragment per kilobase million (FPKM) was calculated for each gene, and genes with an FPKM > 1 were considered constitutively expressed, [102], [114]. Genes associated with xenobiotic metabolism and transport were identified by pathway enrichment analysis in MetaCore (GeneGo, Thomson Reuters, Carlsbad, CA) and by literature search.

[5] = tested on: CYP1A1; assay: RNA-sequencing, differential expression of CYP1A1; assay type: cell-based, human; conditions: 24 h, BAP 0.076-3 µg/cm^2, vs vehicle control
Method: as §6

[6] = tested on: CYP1A1; assay: CYP1A1 activity, P450-Glo CYP1A1 Assay in ALI-HBECs; assay type: cell-based, human; conditions: BAP 2.26 µg/cm^2, 0-48 h
Method: CYP1A1 activity was measured in ALI-HBECs using the P450-Glo™ CYP1A1 Assay System (Promega, Madison, WI). The protocol was adapted to assess CYP1A1 activity in ALI-HBECs. Luciferin-CEE solution was diluted in DPBS, ALI-HBEC basal media was replaced with DPBS, and 50 µL of Luciferin-CEE solution was added to the apical surface. […] Luminescence was recorded on a Synergy HTX plate reader. Cell viability was measured using the CellTiter-Glo® (CTG) Luminescent Cell Viability Assay (Promega, Madison, WI) per manufacturer’s protocol, and luminescence was recorded on a Synergy HTX plate reader. Background luminescence was subtracted from all data, and CYP1A1 activity was normalized to cell viability for each sample.

[7] = M1 parameter, Active Efflux model
[8] = M1 parameter, Active Efflux model, set as parent value
[9] = M1 parameter, Passive Diffusion model
[10] = M1 parameter, Passive Diffusion model, set as parent value
[11] = parent parameter, No Metabolism Induction
[12] = parent parameter, With Metabolism Induction

OC1C=Cc2c(cc3ccc4cccc5ccc2c3c45)C1O (centres unmarked) [7,8-dihydrodiol, BAP-7,8-dihydrodiol]
Active efflux into media [1, 7]: 0.000869 L/h
Active efflux into mucus [1, 7]: 0.000445 L/h
Clearance by metabolism [1, 7]: 0.79 L/hr/kg^3/4
Fraction of parent metabolites that are M1 [1, 7]: 0.099
Volatilization from media [1, 8]: 0.00185 h⁻¹
Volatilization from mucus [1, 8]: 0.00185 h⁻¹
Clearance by metabolism [1, 9]: 3.93 L/hr/kg^3/4
Permeability of cells [1, 9]: 16.9 ×10⁻⁶ cm/s
Fraction of parent metabolites that are M1 [1, 9]: 0.022
Volatilization from media [1, 10]: 0.00185 h⁻¹
Volatilization from mucus [1, 10]: 0.00185 h⁻¹
Fraction of M1 formed from parent metabolites ([1]; model temporarily optimized to the validation set (BAP 4.67 µg/cm^2)): 0.05

c1ccc2c(c1)cc1ccc3cccc4ccc2c1c34 [BAP, Benzo[a]pyrene]
recovery at 0 h, 2.26 µg/cm^2 [2]: 85.2%
recovery at 0 h, 4.67 µg/cm^2 [2]: 87.5%
time by which BAP was cleared from cells ([3]; after exposure): ≤ 48 h
time before BAP started releasing into the media fraction ([3]; optimization dataset): > 4 h
average BAP recovery at 0 h (amount) ([3]; optimization dataset, BAP 2.26 µg/cm^2): 8.6 nmol
average BAP recovery at 0 h (amount) ([3]; validation dataset, BAP 4.67 µg/cm^2): 16.8 nmol
Volatilization from media [1, 11]: 0.00436 h⁻¹
Absorption into cells [1, 11]: 0.47 h⁻¹
Volatilization from media [1, 12]: 0.00185 h⁻¹
Absorption into cells [1, 12]: 0.24 h⁻¹
number of genes related to xenobiotic metabolism significantly differentially expressed [4]: 38 genes
number of genes related to xenobiotic transport significantly differentially expressed [4]: 8 genes
CYP1A1 average induction (mRNA) [5]: 12.6 fold
time of maximum CYP1A1 activity [6]: 8 h
